Reference: patent publication US8648076B2, “Cysteine protease inhibitors and their therapeutic applications” (Hybrigenics SA, priority 2005, dated 2014)

Key:
USP7 = target: T1, USP7 (Homo sapiens, UniProt Q93009); experiment: USP7 activity assay; type: biochemical
T1 construct: His tag (from pFastBac-HT vector) (N); made in house; host or cells: insect cells (Sf9 or High Five), baculovirus

Uch-L3 = target: T2, Uch-L3 (Homo sapiens, UniProt P15374); experiment: UCH-L3 activity assay; type: biochemical; conditions: 400 nM Ub-AMC, 13 pM enzyme, 30 min pre-incubation at 25° C., 60 min at 37° C.; sigmoidal fit; AF: Autofluorescent; read-out: Uch-L3 (inhibition of cysteine protease activity)
T2 sequence (P15374 1-230): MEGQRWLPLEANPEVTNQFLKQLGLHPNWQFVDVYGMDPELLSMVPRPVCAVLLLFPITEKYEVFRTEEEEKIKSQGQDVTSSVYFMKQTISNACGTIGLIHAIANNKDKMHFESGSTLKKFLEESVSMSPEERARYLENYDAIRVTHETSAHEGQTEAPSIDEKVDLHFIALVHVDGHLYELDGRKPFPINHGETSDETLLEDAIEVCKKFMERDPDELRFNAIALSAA
Outline: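 Compounds were pre-incubated with 13 pM Uch-L3 for 30 min at 25° C in pH 7.6 buffer with 0.05 mg/ml BSA. Reactions ran 60 min at 37° C with 400 nM Ub-AMC, were stopped with 100 mM acetic acid, and AMC fluorescence was read. Duplicates were expressed as % of no-compound control and fitted to a variable-slope sigmoid.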

Caspase 3 = target: T3, Caspase 3 (Homo sapiens, UniProt P42574); experiment: Caspase 3 activity assay; type: biochemical; conditions: 500 nM Ac-DEVD-AMC, 3.2 nM enzyme, 30 min pre-incubation at 25° C., 60 min at 37° C.; sigmoidal fit; AF: Autofluorescent; read-out: Casp3 (inhibition of cysteine protease activity)
T3 sequence (P42574 29-175 limits assumed): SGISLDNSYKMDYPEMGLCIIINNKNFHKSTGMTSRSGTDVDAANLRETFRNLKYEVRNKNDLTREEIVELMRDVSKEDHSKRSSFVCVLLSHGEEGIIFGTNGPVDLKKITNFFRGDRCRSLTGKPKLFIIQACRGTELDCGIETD
T3 sequence (P42574 176-277 limits assumed): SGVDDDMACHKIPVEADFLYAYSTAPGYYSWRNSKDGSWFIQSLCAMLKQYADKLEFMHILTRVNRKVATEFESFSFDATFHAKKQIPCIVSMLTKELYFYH
Protocol: Compounds stocks (100 mM) were stored at −20° C. in DMSO. […] Reactions were performed as duplicates in Black LJL 96 well plates (HE microplates; Molecular Devices; 20 μl final reaction volume). The substrate concentration for caspase 3 specificity assay was 500 nM (Ac-DEVD-AMC; Promega). […] The concentrations were determined in order to perform specificity assays under initial velocities at fixed substrate concentration. Compounds were pre-incubated with enzymes for 30 minutes at 25° C. Reactions were initiated by addition of substrate to the plates containing the enzymes (+/−compounds) diluted in assay buffer. Reactions were incubated for 60 minutes at 37° C. Reactions were stopped by adding acetic acid (100 mM final). Readings were performed on a Pherastar Fluorescent Reader (BMG). δ Emission 380 nm; δ Excitation=460 nm. Data (mean values+/− standard deviation) were analyzed as % of control (no compound) and plotted as percentage versus the Log of the compound concentration using GraphPad (Prism). Data were fitted to a sigmoidal model (variable slope).

[1] = tested on: HCT116 colon cancer cells; experiment: HCT116 cell viability and proliferation assay (MTS); type: cell-based; conditions: Homo sapiens, HCT-116, 72 h, read-out: HCT116 D3 GI50
[2] = tested on: PC-3 prostate cancer cells; experiment: PC3 cell viability and proliferation assay (MTS); type: cell-based; conditions: Homo sapiens, PC-3, 72 h, read-out: PC3 D3 GI50

T1 sequence (Q93009 whole entry): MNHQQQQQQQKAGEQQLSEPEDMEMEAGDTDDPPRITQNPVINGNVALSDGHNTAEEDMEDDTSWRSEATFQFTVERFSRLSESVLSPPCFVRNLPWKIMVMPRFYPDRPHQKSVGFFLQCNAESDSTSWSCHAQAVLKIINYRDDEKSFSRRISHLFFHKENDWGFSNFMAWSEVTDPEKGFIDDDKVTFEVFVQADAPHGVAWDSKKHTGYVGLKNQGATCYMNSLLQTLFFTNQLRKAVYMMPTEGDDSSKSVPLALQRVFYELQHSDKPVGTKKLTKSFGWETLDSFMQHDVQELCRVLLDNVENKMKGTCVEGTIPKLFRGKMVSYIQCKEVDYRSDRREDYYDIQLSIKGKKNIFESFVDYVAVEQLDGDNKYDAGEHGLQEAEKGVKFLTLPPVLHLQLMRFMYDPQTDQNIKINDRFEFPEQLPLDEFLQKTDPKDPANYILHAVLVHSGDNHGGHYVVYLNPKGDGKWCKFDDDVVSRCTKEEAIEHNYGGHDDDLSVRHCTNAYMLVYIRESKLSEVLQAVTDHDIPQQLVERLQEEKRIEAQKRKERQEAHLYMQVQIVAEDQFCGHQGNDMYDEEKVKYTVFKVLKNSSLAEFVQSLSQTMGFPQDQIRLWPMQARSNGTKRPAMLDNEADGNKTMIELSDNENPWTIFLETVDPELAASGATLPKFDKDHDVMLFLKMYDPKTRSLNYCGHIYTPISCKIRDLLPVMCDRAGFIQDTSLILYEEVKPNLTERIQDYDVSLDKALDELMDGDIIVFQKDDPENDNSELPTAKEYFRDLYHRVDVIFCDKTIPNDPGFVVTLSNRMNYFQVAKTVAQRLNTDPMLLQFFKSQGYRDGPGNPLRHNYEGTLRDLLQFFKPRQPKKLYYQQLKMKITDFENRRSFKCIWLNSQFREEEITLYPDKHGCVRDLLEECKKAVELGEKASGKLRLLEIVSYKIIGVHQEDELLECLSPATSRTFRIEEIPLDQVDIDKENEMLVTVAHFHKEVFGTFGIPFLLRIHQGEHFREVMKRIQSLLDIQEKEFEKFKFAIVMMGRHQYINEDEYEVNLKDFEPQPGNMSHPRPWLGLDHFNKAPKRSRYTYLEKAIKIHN

| Compound | IC50 (USP7) [nM] | IC50 (Uch-L3) [nM] | IC50 (Caspase 3) [nM] | GI50 [1] [nM] | GI50 [2] [nM] |
| --- | --- | --- | --- | --- | --- |
| C=CCON=C1c2ccccc2-c2nc(C(N)=O)c(C#N)nc21 [Example 34a, 9-Allyloxyimino-2-cyano-9H-indeno[1,2-b]pyrazine-3-carboxylic acid amide] | 500 | 32 | 245 | 496 | 511 |
| CCON=C1c2ccccc2-c2nc(C(N)=O)c(C#N)nc21 [Example 34b, 2-Cyano-9-ethoxyimino-9H-indeno[1,2-b]pyrazine-3-carboxylic acid amide] | 2510 | 99 | 624 | 469 | 479 |
| COCCON=C1c2ccccc2-c2nc(C(N)=O)c(C#N)nc21 [Example 34c, 2-Cyano-9-(2-methoxy-ethoxyimino)-9H-indeno[1,2-b]pyrazine-3-carboxylic acid amide] | 2880 | 109 | 1220 | 378 | 362 |
| CON=C1c2ccccc2-c2nc(C(N)=O)c(C#N)nc21 [Example 34d, 2-Cyano-9-methoxyimino-9H-indeno[1,2-b]pyrazine-3-carboxylic acid amide] | 396 | 37 | 131 | 916 | 1200 |
| N#Cc1nc2c(nc1O)-c1ccc(Cl)cc1C2=O [Example 42, 7-chloro-3-hydroxy-9-oxo-9H-indeno[1,2-b]pyrazine-2-carbonitrile] | > 100000 | > 100000 | > 100000 | > 10000 | > 10000 |
| N#Cc1nc2c(nc1C#N)-c1ccc(Cl)cc1C2=NNC(N)=O [Example 43, 9-[(aminocarbonyl)hydrazono]-7-chloro-9H-indeno[1,2-b]pyrazine-2,3-dicarbonitrile] | > 100000 | 13500 | 64900 | 512 | 655 |
